Measurements published in the supplement of paper PMC10307832.

How the values were obtained:
Experiment in all cases: relative viability (nuclei count vs DMSO), 5 days (fraction); higher = more cells survive
NCI-H1703 = tested on: NCI-H1703
Procedure, shortened: (§1)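 Lung cancer cell lines in 1536-well plates got either a single drug or a fixed anchor-drug dose together with five library-drug doses (not always all listed) in √10 steps, by pin tool, on the day after seeding. Nuclei were counted after 5 days, and relative viability is the treated-to-vehicle ratio of nuclei counts. Values are medians of duplicate plates.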

IA-LM = tested on: IA-LM
Procedure, shortened: as §1

EBC-1 = tested on: EBC-1
Procedure, shortened: as §1

A549 = tested on: A549
Procedure, shortened: as §1

SW 1573 = tested on: SW 1573
Procedure, shortened: as §1

Calu-6 = tested on: Calu-6
Procedure, shortened: as §1

COR-L23 = tested on: COR-L23
Procedure, shortened: as §1

ChaGo-K-1 = tested on: ChaGo-K-1
Procedure, shortened: as §1

NCI-H1651 = tested on: NCI-H1651
Procedure, shortened: as §1

NCI-H1437 = tested on: NCI-H1437
Procedure, shortened: as §1

ABC-1 = tested on: ABC-1
Procedure, shortened: as §1

NCI-H1299 = tested on: NCI-H1299
Procedure, shortened: as §1

SK-MES-1 = tested on: SK-MES-1
Procedure, shortened: as §1

## Nc1ccn([C@@H]2O[C@H](CO)[C@@H](O)[C@@H]2O)c(=O)n1 [Cytarabine] + CS(=O)(=O)N1CCN(Cc2cc3nc(-c4cccc5[nH]ncc45)nc(N4CCOCC4)c3s2)CC1 [Pictilisib] (partner 1 µM)
NCI-H1703; first compound 0.005 µM
  relative viability: 0.263
NCI-H1703; first compound 0.01581 µM
  relative viability: 0.182
NCI-H1703; first compound 0.05 µM
  relative viability: 0.194
NCI-H1703; first compound 0.1581 µM
  relative viability: 0.149
NCI-H1703; first compound 0.5 µM
  relative viability: 0.158
IA-LM; first compound 0.005 µM
  relative viability: 0.296
IA-LM; first compound 0.01581 µM
  relative viability: 0.336
IA-LM; first compound 0.05 µM
  relative viability: 0.338
IA-LM; first compound 0.1581 µM
  relative viability: 0.154
IA-LM; first compound 0.5 µM
  relative viability: 0.0939
EBC-1; first compound 0.005 µM
  relative viability: 0.37
EBC-1; first compound 0.01581 µM
  relative viability: 0.29
EBC-1; first compound 0.05 µM
  relative viability: 0.239
EBC-1; first compound 0.1581 µM
  relative viability: 0.215
EBC-1; first compound 0.5 µM
  relative viability: 0.193
A549; first compound 0.005 µM
  relative viability: 0.506
A549; first compound 0.05 µM
  relative viability: 0.539
A549; first compound 0.1581 µM
  relative viability: 0.0667
A549; first compound 0.5 µM
  relative viability: 0.039
SW 1573; first compound 0.005 µM
  relative viability: 0.362
SW 1573; first compound 0.01581 µM
  relative viability: 0.378
SW 1573; first compound 0.05 µM
  relative viability: 0.317
SW 1573; first compound 0.1581 µM
  relative viability: 0.134
SW 1573; first compound 0.5 µM
  relative viability: 0.106
Calu-6; first compound 0.005 µM
  relative viability: 0.741
Calu-6; first compound 0.01581 µM
  relative viability: 0.618
Calu-6; first compound 0.05 µM
  relative viability: 0.775
Calu-6; first compound 0.1581 µM
  relative viability: 0.371
Calu-6; first compound 0.5 µM
  relative viability: 0.203
COR-L23; first compound 0.005 µM
  relative viability: 0.637
COR-L23; first compound 0.01581 µM
  relative viability: 0.51
COR-L23; first compound 0.05 µM
  relative viability: 0.532
COR-L23; first compound 0.1581 µM
  relative viability: 0.171
COR-L23; first compound 0.5 µM
  relative viability: 0.112
ChaGo-K-1; first compound 0.005 µM
  relative viability: 0.583
ChaGo-K-1; first compound 0.01581 µM
  relative viability: 0.459
ChaGo-K-1; first compound 0.05 µM
  relative viability: 0.284
ChaGo-K-1; first compound 0.1581 µM
  relative viability: 0.365
ChaGo-K-1; first compound 0.5 µM
  relative viability: 0.401
NCI-H1651; first compound 0.005 µM
  relative viability: 0.446
NCI-H1651; first compound 0.01581 µM
  relative viability: 0.522
NCI-H1651; first compound 0.05 µM
  relative viability: 0.533
NCI-H1651; first compound 0.1581 µM
  relative viability: 0.17
NCI-H1651; first compound 0.5 µM
  relative viability: 0.165
NCI-H1437; first compound 0.005 µM
  relative viability: 0.381
NCI-H1437; first compound 0.01581 µM
  relative viability: 0.245
NCI-H1437; first compound 0.05 µM
  relative viability: 0.252
NCI-H1437; first compound 0.1581 µM
  relative viability: 0.112
NCI-H1437; first compound 0.5 µM
  relative viability: 0.11
ABC-1; first compound 0.005 µM
  relative viability: 0.939
ABC-1; first compound 0.01581 µM
  relative viability: 0.679
ABC-1; first compound 0.05 µM
  relative viability: 0.698
ABC-1; first compound 0.1581 µM
  relative viability: 0.635
ABC-1; first compound 0.5 µM
  relative viability: 0.325
NCI-H1299; first compound 0.005 µM
  relative viability: 0.819
NCI-H1299; first compound 0.01581 µM
  relative viability: 0.839
NCI-H1299; first compound 0.05 µM
  relative viability: 0.959
NCI-H1299; first compound 0.1581 µM
  relative viability: 0.656
NCI-H1299; first compound 0.5 µM
  relative viability: 0.645
SK-MES-1; first compound 0.005 µM
  relative viability: 0.333
SK-MES-1; first compound 0.01581 µM
  relative viability: 0.305
SK-MES-1; first compound 0.05 µM
  relative viability: 0.227
SK-MES-1; first compound 0.1581 µM
  relative viability: 0.194
SK-MES-1; first compound 0.5 µM
  relative viability: 0.205
